Laboratory results reported in patent US20220409657A1, “INSTRUCTIONS FOR COMPOSITION AND SENSITIVITY” (Azura Ophthalmics Ltd., priority 2020, published 2022).
Read-outs that look alike come from different tables or passages of the source.

Legend:
human subjects [1] = system: human subjects
Description: In a clinical study three different concentrations were used; 0.1 wt. %, (10 subjects) 0.5 wt. % (12 subjects) and 1 wt. % (26 subjects).

human subjects [2] = conditions: in vivo
Description: An additional 2 or 3 additional cases of adverse effects. Of these subjects, 2 had keratitis following the 1st in-office application and another patient deteriorate following the 2nd in-office application although the subject kept on another dose or two at home before coming with pain to be examined (a typical scenario when keratitis evolves).

human subject = system: human subject
Experimental: In most instances, the treatment is applied on a biweekly basis, however some patients move to daily application based on prespecified protocol criteria. Because the ointment-based composition is known to mix with tear fluid and cause blurry vision, individuals in this study are advised to apply the treatment prior to bed so as to avoid risks associated with reduced vision acuity. […] The in-office applications are conducted at specific, pre-determined time points. In these instances, the treatment is not applied before bed but rather is performed during daylight hours.

study patients = conditions: in vivo
Experimental: In a first study patients were instructed to dose in both the evening, between visits, and in the daytime during regular scheduled clinic visits as part of the study protocol. Study patients received a 2-week run-in on a placebo which was administered twice weekly for a period of two weeks.
Adverse events comprise a feeling of grittiness, foreign body feeling, stinging, blurry vision, redness, tired eyes, water eyes, irritation, lid abnormalities, burning, corneal abrasion, photophobia, staining, or dry eye disorder (DED).

[3] = system: meibomian gland disorder (MGD) patients; conditions: twice a week, 3 month time point
Experimental: The drug was applied twice a week and final evaluation was done at the 3 month time point in which the primary outcome of Meibomian Gland Score (MGS) was assessed.

rabbits = conditions: dose about 4 mg, concentration up to 2.5 wt. %, ointment over the eyelid margin
animals = conditions: in vivo; cited from earlier work
seborrheic blepharitis = conditions: cited from earlier work
[4] = in vivo; cited from earlier work

## selenium disulfide [SeS2]
Human subjects [1]; human, in vivo
  adverse events during the first month: no adverse events
  initiation of pain after the application: 6 to 20 h
  keratitis after in-office, daytime applications: no development of keratitis
  keratitis in bedtime applications: without a single occurrence of keratitis
  subjects who developed keratitis or keratitis related symptoms: four
  time from in-office morning application to significant pain: About 7 hours
Human subjects [1]; one patient, 1 wt. %, first month, twice weekly at home before bedtime
  total OSDI, VAS and SPEED: significant improvement
Human subjects [2]
  additional cases of adverse effects: 2-3 cases
  subjects with keratitis following the 1st in-office application: 2 subjects
Human subject; 0.1 wt. % concentration
  keratitis: Keratitis is not observed
Human subject; 0.5 wt. % concentration
  keratitis: Keratitis is not observed
Human subject; 1 wt. % cohort, following in-office assessment
  patients noting symptoms of keratitis: four
Human subject; 400 or more bedtime applications
  bedtime applications resulting in keratitis: none
Human subject; at least one patient, one month of treatment, 1 wt. %
  health outcomes by OSDI, VAS and SPEED: improved health outcomes
Human subject; one patient, 1 wt. %
  time from in-office assessment to significant pain near the treated area: ≤ 7 h
Study patients
  reduction in the incidence of ocular adverse events: 75%
  reduction of discontinuations from adverse events (DC for AE): at least 50%
  reduction of rates of ocular adverse events (ocular AE): at least 50%
[3]; 9 patients using finger
  average change from baseline in Meibomian Gland Score (MGS): 10 (+/− 8.2)
[3]; 13 patients using applicator
  average change from baseline in Meibomian Gland Score (MGS): 2.3 (+/− 4.4)
rabbits
  tolerability: well tolerated
animals
  safe concentration for use in humans: 0.5%
Seborrheic blepharitis; SeS2 0.5%
  treatment of seborrheic blepharitis: effective
Seborrheic blepharitis; human, in vivo
  adverse events following topical ocular use: superficial punctate keratitis and conjunctivitis
[4]
  contact dermatitis: can produce contact dermatitis
  contact or photo-contact dermatitis in tinea versicolor treatment: None of the investigators encountered a single case
  hair loss after shampooing: diffuse hair loss
  skin reaction after shampoo applied three consecutive nights: developed circumscribed eczematous plaques
